Columns and labels:
[1] = target: T1, Stimulator of interferon genes protein (Homo sapiens, UniProt Q86WV6); details: filed as agonist
Target sequence in this assay (Q86WV6 whole entry): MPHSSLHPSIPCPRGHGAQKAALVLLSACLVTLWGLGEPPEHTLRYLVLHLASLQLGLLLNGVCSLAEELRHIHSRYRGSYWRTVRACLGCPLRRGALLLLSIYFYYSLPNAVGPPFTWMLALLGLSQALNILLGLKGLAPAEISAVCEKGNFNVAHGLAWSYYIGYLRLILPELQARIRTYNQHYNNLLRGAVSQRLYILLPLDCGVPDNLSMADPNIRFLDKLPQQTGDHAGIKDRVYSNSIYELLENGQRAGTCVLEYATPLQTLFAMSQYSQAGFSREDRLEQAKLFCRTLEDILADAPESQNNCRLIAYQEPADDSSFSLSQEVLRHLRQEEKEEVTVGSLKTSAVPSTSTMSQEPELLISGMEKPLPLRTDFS
Description: Binding affinity to recombinant human wild type STING (155 to 341 residues) expressed in Escherichia coli BL21 DE3 assessed as thermal stabilization by measuring change in melting temperature by differential scanning fluorimetry

[2] = target: T1, Stimulator of interferon genes protein; test: Agonist activity at human STING AQ variant overexpressed in STING knockout human THP1-Blue ISG cells expressing IRF inducible SEAP reporter construct assessed as increase in interferon production by measuring SEAP activity incubated for 24 hrs by Fingerprinting based QUANTI-Blue colorimetric assay; format: cell-based
Target sequence in this assay (Q86WV6 whole entry, looked up, change not shown): as the sequence (Q86WV6 whole entry) above

[3] = target: T1, Stimulator of interferon genes protein; test: Agonist activity at human STING in STING knockout human THP1-Blue ISG cells expressing IRF inducible SEAP reporter construct assessed as increase in interferon production by measuring SEAP activity incubated for 24 hrs by Fingerprinting based QUANTI-Blue colorimetric assay; format: cell-based
Target sequence in this assay (Q86WV6 whole entry): as above

[4] = target: T1, Stimulator of interferon genes protein; test: Agonist activity at human STING Q variant overexpressed in STING knockout human THP1-Blue ISG cells expressing IRF inducible SEAP reporter construct assessed as increase in interferon production by measuring SEAP activity incubated for 24 hrs by Fingerprinting based QUANTI-Blue colorimetric assay; format: cell-based
Target sequence in this assay (Q86WV6 whole entry, looked up, change not shown): as the sequence (Q86WV6 whole entry) above

[5] = target: T1, Stimulator of interferon genes protein; test: Agonist activity at human STING REF variant overexpressed in STING knockout human THP1-Blue ISG cells expressing IRF inducible SEAP reporter construct assessed as increase in interferon production by measuring SEAP activity incubated for 24 hrs by Fingerprinting based QUANTI-Blue colorimetric assay; format: cell-based
Target sequence in this assay (Q86WV6 whole entry, looked up, change not shown): as the sequence (Q86WV6 whole entry) above

[6] = target: T1, Stimulator of interferon genes protein; test: Agonist activity at human STING HAQ variant overexpressed in STING knockout human THP1-Blue ISG cells expressing IRF inducible SEAP reporter construct assessed as increase in interferon production by measuring SEAP activity incubated for 24 hrs by Fingerprinting based QUANTI-Blue colorimetric assay; format: cell-based
Target sequence in this assay (Q86WV6 whole entry, looked up, change not shown): as the sequence (Q86WV6 whole entry) above

[7] = target: T1, Stimulator of interferon genes protein; test: Agonist activity at human wild type STING overexpressed in STING knockout human THP1-Blue ISG cells expressing IRF inducible SEAP reporter construct assessed as increase in interferon production by measuring SEAP activity incubated for 24 hrs by Fingerprinting based QUANTI-Blue colorimetric assay; format: cell-based
Target sequence in this assay (Q86WV6 whole entry): as above

[8] = target: T1, Stimulator of interferon genes protein; test: Agonist activity at human STING expressed in human THP-1 cells expressing IRF inducible SEAP reporter construct assessed as increase in interferon production incubated for 24 hrs by QUANTI-Blue colorimetric assay; format: cell-based
Target sequence in this assay (Q86WV6 whole entry): as above

[9] = Stability in mouse plasma assessed as half life at 1 uM by HPLC/MS/MS analysis; format: ADME, cell-free
[10] = target: hERG (KCNH2) (Homo sapiens, UniProt Q12809); test: Inhibition of human ERG at 10 uM; format: toxicity
Chain of hERG (KCNH2) (Q12809 whole entry): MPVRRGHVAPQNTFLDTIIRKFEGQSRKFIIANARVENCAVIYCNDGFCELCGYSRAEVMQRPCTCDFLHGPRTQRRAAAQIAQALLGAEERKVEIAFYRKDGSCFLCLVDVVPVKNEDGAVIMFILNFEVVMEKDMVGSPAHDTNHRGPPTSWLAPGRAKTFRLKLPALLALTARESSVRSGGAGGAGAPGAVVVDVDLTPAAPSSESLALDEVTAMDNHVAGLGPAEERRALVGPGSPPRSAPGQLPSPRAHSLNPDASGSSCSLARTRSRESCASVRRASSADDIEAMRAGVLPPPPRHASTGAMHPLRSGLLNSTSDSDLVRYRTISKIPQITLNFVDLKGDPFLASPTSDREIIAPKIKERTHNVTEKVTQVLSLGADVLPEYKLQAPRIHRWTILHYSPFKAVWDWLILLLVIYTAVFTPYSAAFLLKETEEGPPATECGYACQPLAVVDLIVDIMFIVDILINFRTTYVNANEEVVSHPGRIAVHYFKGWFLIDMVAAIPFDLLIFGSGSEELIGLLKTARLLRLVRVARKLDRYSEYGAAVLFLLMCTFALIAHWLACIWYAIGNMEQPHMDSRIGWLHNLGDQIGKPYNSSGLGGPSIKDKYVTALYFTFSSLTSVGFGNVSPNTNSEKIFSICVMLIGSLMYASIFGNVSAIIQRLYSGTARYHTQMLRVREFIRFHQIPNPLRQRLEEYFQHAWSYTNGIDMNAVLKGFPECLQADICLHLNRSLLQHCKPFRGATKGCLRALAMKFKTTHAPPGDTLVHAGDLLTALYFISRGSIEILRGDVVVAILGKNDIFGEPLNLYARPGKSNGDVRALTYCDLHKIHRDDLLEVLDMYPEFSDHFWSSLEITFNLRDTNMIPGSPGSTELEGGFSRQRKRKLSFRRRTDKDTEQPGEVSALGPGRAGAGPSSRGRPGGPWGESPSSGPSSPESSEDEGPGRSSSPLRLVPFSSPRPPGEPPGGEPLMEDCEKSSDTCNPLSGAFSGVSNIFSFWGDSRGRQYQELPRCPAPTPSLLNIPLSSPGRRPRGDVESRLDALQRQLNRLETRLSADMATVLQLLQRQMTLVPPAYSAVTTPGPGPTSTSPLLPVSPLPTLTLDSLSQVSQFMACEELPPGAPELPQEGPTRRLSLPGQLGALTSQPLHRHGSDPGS

[11] = target: T2, Stimulator of interferon genes protein (Mus musculus) (UniProt Q3TBT3); details: filed as agonist
T2 sequence (whole entry): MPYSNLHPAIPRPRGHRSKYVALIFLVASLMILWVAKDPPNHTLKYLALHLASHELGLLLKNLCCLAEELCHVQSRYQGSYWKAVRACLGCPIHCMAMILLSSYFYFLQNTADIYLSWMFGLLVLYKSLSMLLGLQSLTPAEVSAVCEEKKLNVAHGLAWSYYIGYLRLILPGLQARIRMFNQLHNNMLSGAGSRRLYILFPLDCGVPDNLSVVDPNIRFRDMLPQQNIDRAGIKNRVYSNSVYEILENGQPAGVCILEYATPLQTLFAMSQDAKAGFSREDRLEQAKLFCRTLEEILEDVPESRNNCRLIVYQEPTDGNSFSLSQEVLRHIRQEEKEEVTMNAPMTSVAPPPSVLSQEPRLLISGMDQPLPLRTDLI
Description: Binding affinity to recombinant mouse STING assessed as change in melting temperature by differential scanning fluorimetry

[12] = Clearance in C57BL/6 mouse plasma assessed as hepatic blood flow at 1 micromol/kg, iv by HPLC/MS/MS analysis; format: ADME, organism-based; details: in vivo, at 1 µmol/kg
[13] = Protein binding in mouse plasma assessed as unbound fraction at 3 uM incubated for 2 hrs by equilibrium dialysis based HPLC/MS/MS analysis; format: ADME, cell-free
[14] = MRT in C57BL/6 mouse at 1 micromol/kg, iv by HPLC/MS/MS analysis; format: ADME, organism-based; details: in vivo, dose 1 µmol/kg
[15] = Volume of distribution at steady state in C57BL/6 mouse at 1 micromol/kg, iv by HPLC/MS/MS analysis; format: ADME, organism-based; details: in vivo, dose 1 µmol/kg, read-out: Vdss
[16] = MRT in C57BL/6 mouse at 10 micromol/kg, iv by HPLC/MS/MS analysis; format: ADME, organism-based; details: in vivo, dose 10 µmol/kg
[17] = Stability in human plasma assessed as half life at 1 uM by HPLC/MS/MS analysis; format: ADME, cell-free
[18] = Clearance in C57BL/6 mouse plasma assessed as hepatic blood flow at 10 micromol/kg, iv by HPLC/MS/MS analysis; format: ADME, organism-based; details: in vivo, at 10 µmol/kg
[19] = Chemical stability of compound in phosphate buffer assessed as compound degradation at 1 mg/ml incubated for 8 weeks at 40 degreeC by HPLC-UV analysis; format: physicochemical; details: read-out: Drug degradation
[20] = Aqueous solubility of compound in 0.9% NaCl buffer at pH 6.4 incubated for 2 hrs by HPLC-UV analysis; format: physicochemical
[21] = Chemical stability of compound in 0.9% NaCl buffer assessed as compound degradation at 1 mg/ml incubated for 8 weeks at 40 degreeC by HPLC-UV analysis; format: physicochemical; details: read-out: Drug degradation
[22] = Protein binding in human plasma assessed as unbound fraction at 3 uM incubated for 2 hrs by equilibrium dialysis based HPLC/MS/MS analysis; format: ADME, cell-free
[23] = Volume of distribution at steady state in C57BL/6 mouse at 10 micromol/kg, iv by HPLC/MS/MS analysis; format: ADME, organism-based; details: in vivo, dose 10 µmol/kg, read-out: Vdss
[24] = Elimination half life in BALB/c syngeneic mouse tumor xenografted with mouse 4T1 cells at 0.16 to 1.4 mg/kg,IT and measured upto 25 hrs by HPLC/MS/MS analysis; format: ADME, organism-based, Neoplasm; details: dose 0.16-1.4 mg/kg, read-out: beta t1/2 (converted)
[25] = Aqueous solubility of compound in phosphate buffer at pH 7.6 incubated for 2 hrs by HPLC-UV analysis; format: physicochemical

SMILES	deltaTm [1]	EC50 [2]	EC50 [3]	EC50 [4]	EC50 [5]	EC50 [6]	EC50 [7]	EC50 [8]	further results
O=c1[nH]ncc2c1ncn2[C@@H]1O[C@@H]2CO[P@@](=O)(S)O[C@H]3[C@@H](O)[C@H](n4cnc5cncnc54)O[C@@H]3CO[P@@](=O)(S)O[C@@H]1[C@@H]2O	13.9 K	1.67 µM	> 50 µM	22.5 µM	> 50 µM	2.06 µM	1.95 µM	0.23 µM	
O=c1[nH]ncc2c1ncn2[C@@H]1O[C@@H]2CO[P@@](=O)(S)O[C@H]3[C@@H](O)[C@H](n4cnc5ccccc54)O[C@@H]3CO[P@@](=O)(S)O[C@@H]1[C@@H]2O	3.6 K							> 100 µM	
Nc1ncnc2c1ncn2[C@@H]1O[C@@]23CO[C@@H]1[C@@H]2O[P@](=O)(S)OC[C@H]1O[C@@H](n2cnc4c(=O)[nH]ncc42)[C@H](O[P@](=O)(S)OC3)[C@@H]1O	17 K							0.17 µM	
Nc1ncnc2c1ncn2[C@@H]1O[C@@H]2CO[P@@](=O)(S)O[C@@H]3[C@H](O)[C@@H](CO[P@@](=O)(S)O[C@H]2[C@H]1O)O[C@H]3n1cnc2c(N)ncnc21									half-life at 1 µM [9]: > 2.17 h; inhibition at 10 µM [10]: 0.4%; deltaTm [11]: 13.5 K; QH [12]: 120%; fraction unbound at 2 h, 3 µM [13]: 0.32; MRT [14]: 7.2 min; Vd [15]: 0.8 L/kg
Nc1ncnc2c1ncn2[C@@H]1CO[C@@H]2O[P@@](=O)(S)O[C@@H]3[C@H](O)[C@@H](CO[P@@](=O)(S)O[C@H]2[C@H]1O)O[C@H]3n1cnc2c(=O)[nH]ncc21	1.75 K							> 100 µM	
CO[C@@H]1[C@@H]2O[P@](=O)(S)OC[C@H]3O[C@@H](n4cnc5c(=O)[nH]ncc54)[C@H](O[P@](=O)(S)OC[C@H]2O[C@H]1n1cnc2c(N)ncnc21)[C@@H]3O	3.7 K							> 100 µM	
Nc1ncnc2c1ncn2[C@@H]1O[C@@H]2CO[P@@](=O)(S)O[C@@H]3[C@H](O)[C@@H](CO[P@@](=O)(S)O[C@H]2[C@H]1F)O[C@H]3c1cnn2c(=O)[nH]ncc12	18 K	0.68 µM	> 50 µM	3.38 µM	24.3 µM	1.04 µM	0.83 µM	0.14 µM	
Nc1ncnc2c1ncn2[C@@H]1O[C@@H]2CO[P@@](=O)(S)O[C@@H]3[C@H](O)[C@@H](CO[P@@](=O)(S)O[C@H]2[C@H]1F)O[C@H]3n1cnc2c(=O)[nH]nnc21	23.9 K	0.61 µM	> 50 µM	1.88 µM	6.01 µM	0.58 µM	0.58 µM	0.16 µM	
Nc1ncnc2c1ncn2[C@@H]1O[C@@H]2CO[P@@](=O)(S)O[C@@H]3[C@H](O)[C@@H](CO[P@@](=O)(S)O[C@H]2[C@H]1F)O[C@H]3n1cnc2c(=O)[nH]ncc21									half-life at 1 µM [9]: > 2.17 h; MRT [16]: 0.53 h; half-life at 1 µM [17]: > 2.17 h; QH [18]: 78%; degraded at 1344 h, 1 mg/ml [19]: > 0.5%; solubility at 2 h [20]: > 10 mg/mL; inhibition at 10 µM [10]: 1%; degraded at 1344 h, 1 mg/ml [21]: > 0.5%; fraction unbound at 2 h, 3 µM [13]: 0.77; fraction unbound at 2 h, 3 µM [22]: 0.74; Vd [23]: 2.2 L/kg; half-life [24]: 7 h; solubility at 2 h [25]: > 10 mg/mL

Reference: ChEMBL document CHEMBL5346967, “Discovery of BI 7446: A Potent Cyclic Dinucleotide STING Agonist with Broad-Spectrum Variant Activity for the Treatment of Cancer” (J Med Chem, 2023)
